Tests used:
[1] = molecular target: T1, Histone-lysine N-methyltransferase EHMT1 (Homo sapiens) (UniProt Q9H9B1); assay: Selectivity interaction (Methyltransferase screen (radiometric assays, panel of 8 PRMTs, 21 protein lysine methyltransferases, 3 DNA methyltransferases, and one RNA methyltransferase)) EUB0000271b EHMT1
T1 sequence (whole entry): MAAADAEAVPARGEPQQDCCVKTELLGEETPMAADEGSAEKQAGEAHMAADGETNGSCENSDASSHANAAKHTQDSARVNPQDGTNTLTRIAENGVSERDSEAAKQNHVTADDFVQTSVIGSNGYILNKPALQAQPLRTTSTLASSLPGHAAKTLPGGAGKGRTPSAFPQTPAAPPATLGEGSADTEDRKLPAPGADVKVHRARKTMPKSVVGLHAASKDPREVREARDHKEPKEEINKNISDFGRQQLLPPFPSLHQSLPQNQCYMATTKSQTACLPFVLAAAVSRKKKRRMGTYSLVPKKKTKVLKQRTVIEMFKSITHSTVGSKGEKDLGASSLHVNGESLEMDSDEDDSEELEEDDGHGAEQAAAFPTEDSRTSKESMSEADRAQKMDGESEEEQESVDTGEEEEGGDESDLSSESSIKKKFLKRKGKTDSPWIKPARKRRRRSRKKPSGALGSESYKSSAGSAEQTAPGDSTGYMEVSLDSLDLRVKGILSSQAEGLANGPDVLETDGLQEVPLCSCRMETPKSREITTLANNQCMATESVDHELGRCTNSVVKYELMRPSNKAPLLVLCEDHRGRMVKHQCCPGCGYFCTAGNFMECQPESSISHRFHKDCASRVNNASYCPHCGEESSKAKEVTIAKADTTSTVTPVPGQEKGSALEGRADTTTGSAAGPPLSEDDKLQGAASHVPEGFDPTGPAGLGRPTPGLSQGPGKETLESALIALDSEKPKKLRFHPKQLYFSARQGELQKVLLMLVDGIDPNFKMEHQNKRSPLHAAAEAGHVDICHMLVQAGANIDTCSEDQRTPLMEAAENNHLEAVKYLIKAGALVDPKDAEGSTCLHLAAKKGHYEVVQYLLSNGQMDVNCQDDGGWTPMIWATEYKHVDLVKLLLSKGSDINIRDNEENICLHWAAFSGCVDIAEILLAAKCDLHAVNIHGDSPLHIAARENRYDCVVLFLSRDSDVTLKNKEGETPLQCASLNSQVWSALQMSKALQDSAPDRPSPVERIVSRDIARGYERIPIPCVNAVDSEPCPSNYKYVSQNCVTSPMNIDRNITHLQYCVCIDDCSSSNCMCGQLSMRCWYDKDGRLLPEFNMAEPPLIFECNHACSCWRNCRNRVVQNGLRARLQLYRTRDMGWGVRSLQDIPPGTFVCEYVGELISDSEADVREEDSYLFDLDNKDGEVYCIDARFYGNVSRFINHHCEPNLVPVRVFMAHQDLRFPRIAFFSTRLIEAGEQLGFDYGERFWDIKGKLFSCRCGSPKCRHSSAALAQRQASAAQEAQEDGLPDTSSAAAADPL

[2] = molecular target: T2, Myosin-IIIb (Homo sapiens) (UniProt Q8WXR4); assay: Selectivity interaction (KinomeScan (DiscoverX)) EUB0000595a MYO3B; conditions: at 10 µM
T2 sequence (whole entry): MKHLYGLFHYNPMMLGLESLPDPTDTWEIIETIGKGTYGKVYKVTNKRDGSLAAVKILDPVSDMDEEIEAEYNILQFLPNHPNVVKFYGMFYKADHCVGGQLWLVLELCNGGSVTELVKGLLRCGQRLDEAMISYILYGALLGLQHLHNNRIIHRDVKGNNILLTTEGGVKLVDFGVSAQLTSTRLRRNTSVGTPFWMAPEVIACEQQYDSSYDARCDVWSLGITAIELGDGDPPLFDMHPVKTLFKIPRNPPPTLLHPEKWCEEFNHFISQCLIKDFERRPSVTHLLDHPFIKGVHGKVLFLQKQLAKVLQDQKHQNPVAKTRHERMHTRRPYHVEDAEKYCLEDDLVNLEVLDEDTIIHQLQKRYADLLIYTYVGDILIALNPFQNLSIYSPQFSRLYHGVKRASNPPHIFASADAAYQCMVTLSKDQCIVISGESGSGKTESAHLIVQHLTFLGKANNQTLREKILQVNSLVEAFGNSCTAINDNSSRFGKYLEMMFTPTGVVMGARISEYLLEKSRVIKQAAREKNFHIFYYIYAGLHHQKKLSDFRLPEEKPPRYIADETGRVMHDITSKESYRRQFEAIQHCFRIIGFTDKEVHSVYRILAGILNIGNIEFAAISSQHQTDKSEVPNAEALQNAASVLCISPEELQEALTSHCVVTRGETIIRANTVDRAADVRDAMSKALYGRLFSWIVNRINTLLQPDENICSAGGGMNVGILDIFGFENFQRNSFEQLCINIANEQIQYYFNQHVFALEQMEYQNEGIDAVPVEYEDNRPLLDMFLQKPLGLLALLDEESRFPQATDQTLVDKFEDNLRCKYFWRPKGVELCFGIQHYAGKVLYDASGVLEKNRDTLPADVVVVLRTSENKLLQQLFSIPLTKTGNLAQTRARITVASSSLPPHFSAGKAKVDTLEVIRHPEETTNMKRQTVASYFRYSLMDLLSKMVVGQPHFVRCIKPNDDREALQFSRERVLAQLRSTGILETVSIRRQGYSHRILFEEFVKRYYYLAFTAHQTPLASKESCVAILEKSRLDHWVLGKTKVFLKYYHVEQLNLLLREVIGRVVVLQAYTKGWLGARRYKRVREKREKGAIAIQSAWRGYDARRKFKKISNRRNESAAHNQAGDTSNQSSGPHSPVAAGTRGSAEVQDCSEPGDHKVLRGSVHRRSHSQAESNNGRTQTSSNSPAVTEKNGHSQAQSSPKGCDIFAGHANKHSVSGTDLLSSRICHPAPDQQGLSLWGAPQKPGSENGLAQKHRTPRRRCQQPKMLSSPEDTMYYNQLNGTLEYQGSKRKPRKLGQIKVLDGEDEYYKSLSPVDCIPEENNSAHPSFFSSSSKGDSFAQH

[3] = molecular target: LIM domain kinase 2 (Homo sapiens) (UniProt P53671); assay: Selectivity interaction (KinomeScan (DiscoverX)) EUB0000045b LIMK2
Sequence of LIM domain kinase 2 (Homo sapiens) (P53671 whole entry, looked up, the tested form may be a part): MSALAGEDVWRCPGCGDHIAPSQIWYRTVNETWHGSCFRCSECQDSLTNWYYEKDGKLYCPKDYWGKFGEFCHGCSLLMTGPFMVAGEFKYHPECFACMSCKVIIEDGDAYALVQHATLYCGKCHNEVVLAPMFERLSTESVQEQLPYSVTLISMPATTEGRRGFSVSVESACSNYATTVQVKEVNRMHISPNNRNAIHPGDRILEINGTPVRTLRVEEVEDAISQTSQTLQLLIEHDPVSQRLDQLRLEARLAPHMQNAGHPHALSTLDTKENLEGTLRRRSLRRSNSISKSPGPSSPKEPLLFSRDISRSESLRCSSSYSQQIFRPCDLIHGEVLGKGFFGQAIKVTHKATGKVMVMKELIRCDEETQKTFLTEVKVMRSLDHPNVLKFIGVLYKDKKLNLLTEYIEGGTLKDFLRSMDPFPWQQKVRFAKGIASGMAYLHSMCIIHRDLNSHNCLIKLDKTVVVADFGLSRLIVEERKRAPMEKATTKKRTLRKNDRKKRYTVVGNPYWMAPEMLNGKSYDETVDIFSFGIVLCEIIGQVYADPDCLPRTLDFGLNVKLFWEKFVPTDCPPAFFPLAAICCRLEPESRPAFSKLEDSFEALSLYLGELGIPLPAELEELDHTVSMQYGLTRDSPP

`Cc1cc(C)cc([C@@H]2c3cc(C)ccc3NC(=O)CN2C(=O)c2ccc(Br)s2)c1` showed a % of activity ([1]; at 1 µM) of 99% and a % of activity ([1]; at 10 µM) of 99%.

`COCC(=O)NC/C=C/c1ccc2ncnc(Nc3ccc(Oc4ccc(C)nc4)c(C)c3)c2c1` [CP-724714] gave a % of control [2] of 100%.

Molecule `C=CC(=O)Nc1cc(-n2c(=O)ccc3cnc4ccc(-c5ccc(NS(C)(=O)=O)cc5)cc4c32)ccc1C` has a % of control ([3]; at 1 µM) of 92% and a % of control ([3]; at 10 µM) of 100%.

— ChEMBL document CHEMBL5465560, “Selectivity Literature for EUbOPEN Chemogenomic Library” (2024)
